The source made the active and inactive calls.
What was measured:
[1] = NIH3T3 cell viability loss – ATP luminescence, mouse fibroblasts, counter-screen, dose response (AID 2010); type: functional, cell-based;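 note: cells exposed to compound for about 90 hours before reading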
[2] = Counterscreen for activators of the function of SWI/SNF related, matrix associated, actin dependent regulator of chromatin, subfamily a, member 2 (SMARCA2, BRM): Luminescence-based cell-based high throughput dose response assay to identify non-selective compounds using the VP16 reporter assay.; type: functional
[3] = target: T1, Intestinal-type alkaline phosphatase (Homo sapiens, UniProt P09923); test: Dose Response confirmation of uHTS hits from a small molecule inhibitors of human intestinal alkaline phosphatase via a luminescent assay. [Related pubchem assays (depositor defined):AID2544, AID2574]; type: functional
[4] = target: T2, DNA repair and recombination protein RAD54-like (Homo sapiens, UniProt Q92698); test: RAD54 Holliday junction migration blockers – biochemical, fluorescence, cherry-picked samples, dose series, confirmation (AID 651657); type: functional
T2 sequence (Q92698 whole entry): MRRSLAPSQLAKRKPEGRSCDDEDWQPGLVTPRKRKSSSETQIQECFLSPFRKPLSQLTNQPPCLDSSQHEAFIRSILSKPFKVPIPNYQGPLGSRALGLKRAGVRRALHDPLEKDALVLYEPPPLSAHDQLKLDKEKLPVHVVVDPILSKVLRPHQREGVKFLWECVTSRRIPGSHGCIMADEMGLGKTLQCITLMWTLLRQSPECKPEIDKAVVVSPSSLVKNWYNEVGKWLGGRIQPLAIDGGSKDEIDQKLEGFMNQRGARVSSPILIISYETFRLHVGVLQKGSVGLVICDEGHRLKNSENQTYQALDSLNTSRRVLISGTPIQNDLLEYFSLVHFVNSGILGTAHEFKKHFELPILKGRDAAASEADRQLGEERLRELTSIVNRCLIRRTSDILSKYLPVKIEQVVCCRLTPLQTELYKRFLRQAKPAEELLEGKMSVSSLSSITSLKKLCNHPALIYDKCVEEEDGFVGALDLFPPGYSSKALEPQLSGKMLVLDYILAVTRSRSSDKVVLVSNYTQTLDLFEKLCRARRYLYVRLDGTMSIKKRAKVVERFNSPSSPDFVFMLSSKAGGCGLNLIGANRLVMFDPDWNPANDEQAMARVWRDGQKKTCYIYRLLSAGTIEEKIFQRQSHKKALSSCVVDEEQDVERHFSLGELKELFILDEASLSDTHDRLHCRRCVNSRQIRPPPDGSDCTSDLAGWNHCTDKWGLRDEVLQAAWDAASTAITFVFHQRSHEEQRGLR

[5] = Trypanosoma cruzi growth suppression in host cells – NIH3T3 host cells, beta-gal luminescence, confirmation (AID 2044); type: functional, cell-based;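 note: intracellular parasites grown in NIH/3T3 mouse fibroblasts as host cells; luminescent beta-galactosidase reporter signal from transgenic T. cruzi replicating inside host cells; inhibitors lower the luminescence signal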
[6] = target: T3, Zinc finger protein mex-5 (Caenorhabditis elegans, UniProt Q9XUB2); test: potency of MEX-5 RNA-binding blockers – biochemical, C. elegans, fluorescence polarization, dose response (AID 1960)
T3 sequence (Q9XUB2 whole entry): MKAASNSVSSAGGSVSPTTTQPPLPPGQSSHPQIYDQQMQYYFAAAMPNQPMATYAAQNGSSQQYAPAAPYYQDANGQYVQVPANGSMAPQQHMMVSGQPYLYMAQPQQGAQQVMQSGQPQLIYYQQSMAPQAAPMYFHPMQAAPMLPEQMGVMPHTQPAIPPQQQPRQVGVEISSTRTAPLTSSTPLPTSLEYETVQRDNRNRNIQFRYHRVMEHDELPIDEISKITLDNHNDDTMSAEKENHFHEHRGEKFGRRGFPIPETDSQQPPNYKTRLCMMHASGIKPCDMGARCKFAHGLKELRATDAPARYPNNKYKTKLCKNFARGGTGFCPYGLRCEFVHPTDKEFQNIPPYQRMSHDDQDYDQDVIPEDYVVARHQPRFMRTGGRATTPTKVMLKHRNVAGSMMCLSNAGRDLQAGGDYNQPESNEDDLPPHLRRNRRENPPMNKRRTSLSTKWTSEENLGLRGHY

INS1 = test: INS-1E survival protection against cytokine death – cell-based, luminescence, retest, dose response (AID 449756); type: functional; conditions: Rattus norvegicus;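 note: cell death triggered by IL-1 beta plus TNF-alpha plus IFN-gamma mixture; protective hits raise ATP signal compared with cytokine alone wells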
[7] = target: T4, Alkaline phosphatase, tissue-nonspecific isozyme (Homo sapiens, UniProt P05186); test: inhibition of tissue-nonspecific alkaline phosphatase – biochemical, dose response (AID 488882); type: functional
T4 sequence (P05186 whole entry): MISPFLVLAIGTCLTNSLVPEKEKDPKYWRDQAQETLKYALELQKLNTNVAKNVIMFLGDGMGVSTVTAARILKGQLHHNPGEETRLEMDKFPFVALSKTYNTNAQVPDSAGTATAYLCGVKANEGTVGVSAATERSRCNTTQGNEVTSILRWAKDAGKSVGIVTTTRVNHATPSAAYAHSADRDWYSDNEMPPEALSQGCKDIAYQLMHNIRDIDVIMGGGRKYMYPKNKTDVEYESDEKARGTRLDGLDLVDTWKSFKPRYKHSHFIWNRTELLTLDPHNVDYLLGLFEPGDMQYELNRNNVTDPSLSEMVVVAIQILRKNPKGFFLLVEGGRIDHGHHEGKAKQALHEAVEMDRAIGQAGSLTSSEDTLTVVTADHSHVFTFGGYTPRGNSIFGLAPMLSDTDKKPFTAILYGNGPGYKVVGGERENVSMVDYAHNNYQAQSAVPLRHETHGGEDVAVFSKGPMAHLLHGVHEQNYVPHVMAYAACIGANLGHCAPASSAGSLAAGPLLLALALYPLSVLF

[8] = target: T5, Intestinal-type alkaline phosphatase (Mus musculus, UniProt P24822); test: PubChem AID 488874; type: functional
[9] = target: T6, DNA repair protein RAD52 homolog (Homo sapiens, UniProt P43351); type: functional, biochemical
T6 sequence (P43351 whole entry): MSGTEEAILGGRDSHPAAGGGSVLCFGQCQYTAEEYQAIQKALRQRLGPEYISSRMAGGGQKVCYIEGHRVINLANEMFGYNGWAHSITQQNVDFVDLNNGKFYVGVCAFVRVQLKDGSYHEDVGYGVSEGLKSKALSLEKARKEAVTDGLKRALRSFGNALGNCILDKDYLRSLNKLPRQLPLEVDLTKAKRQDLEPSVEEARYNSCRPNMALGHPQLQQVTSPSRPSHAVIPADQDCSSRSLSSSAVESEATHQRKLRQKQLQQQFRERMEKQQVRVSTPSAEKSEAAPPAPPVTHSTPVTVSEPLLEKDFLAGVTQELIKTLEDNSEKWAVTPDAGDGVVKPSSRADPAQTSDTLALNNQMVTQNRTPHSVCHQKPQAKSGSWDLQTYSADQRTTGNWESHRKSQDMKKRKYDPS

[10] = target: SWI/SNF-related matrix-associated actin-dependent regulator of chromatin subfamily A member 2 (Homo sapiens, UniProt P51531); test: Luminescence-based cell-based high throughput dose response assay to identify activators of the function of SWI/SNF related, matrix associated, actin dependent regulator of chromatin, subfamily a, member 2 (SMARCA2, BRM).; type: functional
[11] = target: T7, RNA-binding protein pos-1 (Caenorhabditis elegans, UniProt G5EF15); test: disruptors of C. elegans POS-1 RNA interaction – biochemical, fluorescence polarization, dose response (AID 1964);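 note: purified POS-1 fused to maltose binding protein made in E. coli; potency of compounds blocking POS-1 binding to fluorescent RNA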
T7 sequence (G5EF15 whole entry): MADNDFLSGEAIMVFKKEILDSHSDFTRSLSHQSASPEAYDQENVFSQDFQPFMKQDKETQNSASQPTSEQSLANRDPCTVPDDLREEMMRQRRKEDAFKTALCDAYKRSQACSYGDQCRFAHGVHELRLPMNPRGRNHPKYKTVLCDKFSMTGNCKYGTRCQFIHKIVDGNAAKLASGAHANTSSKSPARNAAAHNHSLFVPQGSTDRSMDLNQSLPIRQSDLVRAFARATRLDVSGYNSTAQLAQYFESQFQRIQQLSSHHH

[12] = target: T1, Intestinal-type alkaline phosphatase; test: inhibition of human intestinal alkaline phosphatase – biochemical, luminescent, uHTS hits, set 2, dose response (AID 488793); type: functional
Albumin = Albumin (Bos taurus, UniProt P02769); test: Counterscreen for inhibitors of T-cell receptor (TCR)-CD3 interaction: Fluorescence-based biochemical high throughput dose response assay to identify inhibitors of T-cell receptor (TCR)-CD3 interaction using a TAMRA-labeled BSA probe.; type: functional
[13] = target: FAD-linked sulfhydryl oxidase ALR (Homo sapiens, UniProt P55789); test: ALR-catalysed DTT oxidation blockers – biochemical, H2O2 detection, luminescence, cherry-pick, dose response (AID 493248)
[14] = target: T1, Intestinal-type alkaline phosphatase; test: inhibition of human intestinal alkaline phosphatase – biochemical, dose response (AID 488876); type: functional
[15] = target: T4, Alkaline phosphatase, tissue-nonspecific isozyme; test: TNAP enzyme inhibition by screening hits, dose response, selectivity assay for mouse IAP inhibitor project, biochemical, human TNAP, uHTS hits (AID 488906); type: functional
[16] = target: T5, Intestinal-type alkaline phosphatase; test: PubChem AID 488785; type: functional
Cytochrome P450 1A2 = target: T8, Cytochrome P450 1A2 (Homo sapiens, UniProt P05177);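 note: PubChem cytochrome P450 panel assay, CYP1A2 panel member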
T8 sequence (P05177 whole entry): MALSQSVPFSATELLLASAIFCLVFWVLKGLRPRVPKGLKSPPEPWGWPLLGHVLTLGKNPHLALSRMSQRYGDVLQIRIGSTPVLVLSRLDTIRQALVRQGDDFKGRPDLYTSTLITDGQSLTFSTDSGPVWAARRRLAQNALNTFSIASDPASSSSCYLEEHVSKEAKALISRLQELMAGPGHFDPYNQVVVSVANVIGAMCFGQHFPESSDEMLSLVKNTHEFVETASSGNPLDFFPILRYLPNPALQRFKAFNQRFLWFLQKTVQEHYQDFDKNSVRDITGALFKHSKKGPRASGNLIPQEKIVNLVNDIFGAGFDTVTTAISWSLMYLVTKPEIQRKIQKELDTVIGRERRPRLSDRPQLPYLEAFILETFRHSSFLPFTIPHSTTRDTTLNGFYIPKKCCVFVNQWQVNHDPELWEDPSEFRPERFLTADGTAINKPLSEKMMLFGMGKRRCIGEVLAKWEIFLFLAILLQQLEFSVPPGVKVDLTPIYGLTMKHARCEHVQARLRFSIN

[17] = target: T9, Ubiquitin-conjugating enzyme E2 N (Homo sapiens, UniProt P61088); type: functional;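 note: Dose-response confirmation in a TR-FRET assay detecting UBC13-driven polyubiquitin chain formation, inhibition measured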
T9 sequence (P61088 whole entry): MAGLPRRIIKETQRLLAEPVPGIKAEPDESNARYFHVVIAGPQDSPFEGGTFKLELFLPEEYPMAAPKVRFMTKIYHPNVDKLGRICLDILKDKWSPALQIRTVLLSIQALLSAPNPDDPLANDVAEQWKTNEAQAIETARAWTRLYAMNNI

[18] = target: Hepatocyte nuclear factor 4-alpha (Homo sapiens, UniProt P41235); type: functional, cell-based;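 note: biochemical luminescence-based dose-response counterscreen measuring inhibition of HNF4 dimerization, run alongside a screen for blockers of ABHD5–perilipin-5 interaction; split luciferase complementation of HNF4 fusion proteins in cell lysate measuring dimerization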
CAAX prenyl protease 1 = CAAX prenyl protease 1 (Saccharomyces cerevisiae S288c, UniProt P47154); test: yeast CAAX protease Ste24 inhibition – biochemical, S. cerevisiae, plate reader, cherry-pick, dose response (AID 488815)
CAAX prenyl protease 2 = target: T10, CAAX prenyl protease 2 (Saccharomyces cerevisiae S288c, UniProt Q03530); type: biochemical
T10 sequence (Q03530 whole entry): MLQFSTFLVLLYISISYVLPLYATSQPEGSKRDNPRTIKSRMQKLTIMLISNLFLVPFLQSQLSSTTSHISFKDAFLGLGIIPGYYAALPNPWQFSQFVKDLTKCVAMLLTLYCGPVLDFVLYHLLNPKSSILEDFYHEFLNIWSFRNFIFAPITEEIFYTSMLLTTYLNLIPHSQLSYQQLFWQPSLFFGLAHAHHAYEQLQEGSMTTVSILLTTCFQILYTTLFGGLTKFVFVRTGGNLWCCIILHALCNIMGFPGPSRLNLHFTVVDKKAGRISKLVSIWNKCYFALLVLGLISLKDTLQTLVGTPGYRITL

T1 sequence (P09923 whole entry): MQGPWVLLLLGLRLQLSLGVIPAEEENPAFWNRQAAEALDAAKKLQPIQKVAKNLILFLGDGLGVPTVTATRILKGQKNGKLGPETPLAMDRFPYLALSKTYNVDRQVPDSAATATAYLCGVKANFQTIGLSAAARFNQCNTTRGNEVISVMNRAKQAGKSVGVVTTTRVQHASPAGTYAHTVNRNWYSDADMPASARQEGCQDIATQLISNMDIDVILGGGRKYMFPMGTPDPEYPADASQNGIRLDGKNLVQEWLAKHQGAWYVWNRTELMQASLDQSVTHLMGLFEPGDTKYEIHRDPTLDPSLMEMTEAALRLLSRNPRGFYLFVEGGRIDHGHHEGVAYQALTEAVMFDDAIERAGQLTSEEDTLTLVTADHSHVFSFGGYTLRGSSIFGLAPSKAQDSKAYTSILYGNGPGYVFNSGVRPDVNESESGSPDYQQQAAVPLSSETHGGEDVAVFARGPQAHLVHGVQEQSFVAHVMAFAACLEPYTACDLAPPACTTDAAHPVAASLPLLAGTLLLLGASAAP
T5 sequence (P24822 whole entry): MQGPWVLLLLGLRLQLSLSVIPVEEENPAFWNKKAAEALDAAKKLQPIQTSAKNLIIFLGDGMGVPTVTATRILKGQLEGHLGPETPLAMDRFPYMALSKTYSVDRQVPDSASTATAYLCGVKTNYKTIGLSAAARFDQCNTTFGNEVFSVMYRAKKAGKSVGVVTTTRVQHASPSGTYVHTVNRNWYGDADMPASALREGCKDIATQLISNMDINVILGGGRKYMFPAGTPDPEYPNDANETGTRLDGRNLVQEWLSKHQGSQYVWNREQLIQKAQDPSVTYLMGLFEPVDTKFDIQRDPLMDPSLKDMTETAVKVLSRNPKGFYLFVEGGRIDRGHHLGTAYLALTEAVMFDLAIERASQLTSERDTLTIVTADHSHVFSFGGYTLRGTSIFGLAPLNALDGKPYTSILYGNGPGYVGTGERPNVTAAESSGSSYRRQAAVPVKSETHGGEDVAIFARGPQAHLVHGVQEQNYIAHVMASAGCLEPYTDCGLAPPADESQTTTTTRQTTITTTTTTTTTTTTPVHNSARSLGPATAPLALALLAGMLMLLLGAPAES
Sequence of Albumin (P02769 whole entry): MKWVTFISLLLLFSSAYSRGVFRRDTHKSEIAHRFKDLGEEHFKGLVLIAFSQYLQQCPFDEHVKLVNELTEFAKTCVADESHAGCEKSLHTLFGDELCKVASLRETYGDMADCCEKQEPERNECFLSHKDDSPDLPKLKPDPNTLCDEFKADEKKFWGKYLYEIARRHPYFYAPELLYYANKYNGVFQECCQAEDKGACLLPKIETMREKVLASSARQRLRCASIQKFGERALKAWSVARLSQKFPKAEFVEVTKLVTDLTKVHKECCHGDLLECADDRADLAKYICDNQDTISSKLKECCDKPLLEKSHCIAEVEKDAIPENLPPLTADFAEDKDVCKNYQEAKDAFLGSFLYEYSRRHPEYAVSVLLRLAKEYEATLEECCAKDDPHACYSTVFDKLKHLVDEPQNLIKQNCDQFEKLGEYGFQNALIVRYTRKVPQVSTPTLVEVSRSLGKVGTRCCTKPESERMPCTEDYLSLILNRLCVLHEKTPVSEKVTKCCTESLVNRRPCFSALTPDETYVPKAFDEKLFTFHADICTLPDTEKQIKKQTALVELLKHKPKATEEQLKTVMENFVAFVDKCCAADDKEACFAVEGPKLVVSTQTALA
Sequence of CAAX prenyl protease 1 (P47154 whole entry): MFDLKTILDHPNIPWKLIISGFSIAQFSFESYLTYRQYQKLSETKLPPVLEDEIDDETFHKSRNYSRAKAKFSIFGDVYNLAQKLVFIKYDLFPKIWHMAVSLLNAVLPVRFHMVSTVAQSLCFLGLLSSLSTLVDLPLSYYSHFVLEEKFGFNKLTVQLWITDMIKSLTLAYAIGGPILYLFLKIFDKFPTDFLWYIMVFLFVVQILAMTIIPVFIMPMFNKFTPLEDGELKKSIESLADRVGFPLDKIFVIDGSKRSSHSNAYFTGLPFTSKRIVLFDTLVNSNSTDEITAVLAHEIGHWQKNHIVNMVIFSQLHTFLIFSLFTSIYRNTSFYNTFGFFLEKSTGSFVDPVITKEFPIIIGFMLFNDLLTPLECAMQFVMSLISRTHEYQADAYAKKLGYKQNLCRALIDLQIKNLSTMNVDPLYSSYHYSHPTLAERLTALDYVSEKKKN
Sequence of FAD-linked sulfhydryl oxidase ALR (P55789 whole entry): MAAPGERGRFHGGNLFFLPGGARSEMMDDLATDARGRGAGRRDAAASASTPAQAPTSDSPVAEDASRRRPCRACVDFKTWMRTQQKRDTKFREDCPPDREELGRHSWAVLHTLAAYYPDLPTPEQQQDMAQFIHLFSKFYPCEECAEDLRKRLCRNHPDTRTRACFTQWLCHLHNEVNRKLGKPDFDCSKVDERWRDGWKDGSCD
Sequence of Hepatocyte nuclear factor 4-alpha (P41235 whole entry, the tested form may be a part): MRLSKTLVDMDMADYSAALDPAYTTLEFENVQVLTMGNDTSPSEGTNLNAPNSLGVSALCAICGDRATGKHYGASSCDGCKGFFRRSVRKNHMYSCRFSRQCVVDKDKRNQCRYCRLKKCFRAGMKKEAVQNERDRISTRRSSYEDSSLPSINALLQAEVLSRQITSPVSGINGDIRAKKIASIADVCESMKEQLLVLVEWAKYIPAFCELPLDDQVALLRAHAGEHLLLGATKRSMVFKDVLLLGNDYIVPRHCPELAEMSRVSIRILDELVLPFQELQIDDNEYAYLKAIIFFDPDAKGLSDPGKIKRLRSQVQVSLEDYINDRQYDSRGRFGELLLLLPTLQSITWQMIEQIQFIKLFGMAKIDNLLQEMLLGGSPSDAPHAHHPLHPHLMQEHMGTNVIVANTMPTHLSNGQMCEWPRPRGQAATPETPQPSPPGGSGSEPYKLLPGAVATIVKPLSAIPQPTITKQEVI
Sequence of SWI/SNF-related matrix-associated actin-dependent regulator of chromatin subfamily A member 2 (P51531 whole entry, the tested form may be a part): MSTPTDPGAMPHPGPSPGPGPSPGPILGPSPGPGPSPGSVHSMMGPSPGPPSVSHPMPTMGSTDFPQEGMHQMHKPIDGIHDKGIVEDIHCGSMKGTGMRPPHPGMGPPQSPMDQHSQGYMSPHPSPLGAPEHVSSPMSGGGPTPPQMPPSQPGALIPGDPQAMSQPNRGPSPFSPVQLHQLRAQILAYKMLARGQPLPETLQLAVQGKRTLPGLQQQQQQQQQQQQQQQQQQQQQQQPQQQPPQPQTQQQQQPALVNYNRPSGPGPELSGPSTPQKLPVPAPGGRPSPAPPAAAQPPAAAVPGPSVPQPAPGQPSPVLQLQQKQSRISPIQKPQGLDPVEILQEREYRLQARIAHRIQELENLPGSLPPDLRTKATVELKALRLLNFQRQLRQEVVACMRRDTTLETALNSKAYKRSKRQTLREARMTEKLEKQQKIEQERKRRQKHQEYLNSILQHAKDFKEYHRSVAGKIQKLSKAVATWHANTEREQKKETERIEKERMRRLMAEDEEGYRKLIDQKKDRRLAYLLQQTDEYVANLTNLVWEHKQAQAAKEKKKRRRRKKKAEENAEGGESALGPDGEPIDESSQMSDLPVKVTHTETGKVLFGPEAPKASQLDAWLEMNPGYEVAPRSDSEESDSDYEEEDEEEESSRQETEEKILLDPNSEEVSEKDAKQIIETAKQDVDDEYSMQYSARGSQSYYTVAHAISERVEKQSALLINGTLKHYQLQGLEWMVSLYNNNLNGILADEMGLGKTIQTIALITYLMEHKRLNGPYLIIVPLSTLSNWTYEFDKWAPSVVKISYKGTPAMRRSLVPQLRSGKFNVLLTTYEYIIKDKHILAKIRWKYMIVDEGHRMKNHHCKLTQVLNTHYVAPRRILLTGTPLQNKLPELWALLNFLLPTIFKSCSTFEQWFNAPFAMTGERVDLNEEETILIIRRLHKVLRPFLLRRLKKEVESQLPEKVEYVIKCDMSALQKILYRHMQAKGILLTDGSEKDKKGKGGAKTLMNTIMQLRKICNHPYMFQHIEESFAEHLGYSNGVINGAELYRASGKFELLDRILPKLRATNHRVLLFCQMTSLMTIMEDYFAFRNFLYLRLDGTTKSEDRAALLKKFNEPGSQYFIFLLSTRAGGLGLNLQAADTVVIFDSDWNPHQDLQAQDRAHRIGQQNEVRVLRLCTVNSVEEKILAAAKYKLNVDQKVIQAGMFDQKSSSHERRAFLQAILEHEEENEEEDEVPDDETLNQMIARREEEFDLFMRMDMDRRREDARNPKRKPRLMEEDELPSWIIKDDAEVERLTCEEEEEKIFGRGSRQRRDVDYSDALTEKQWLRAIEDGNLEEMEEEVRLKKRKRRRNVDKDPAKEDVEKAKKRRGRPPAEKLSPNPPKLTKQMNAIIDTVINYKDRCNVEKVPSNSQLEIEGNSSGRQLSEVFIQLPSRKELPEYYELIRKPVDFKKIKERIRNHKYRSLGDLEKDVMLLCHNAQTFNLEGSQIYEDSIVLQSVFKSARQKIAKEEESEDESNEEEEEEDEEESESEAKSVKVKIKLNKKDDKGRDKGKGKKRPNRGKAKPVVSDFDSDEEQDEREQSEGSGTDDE

COc1ccc2nc3cc(Cl)ccc3c(Nc3cc(CN4CCCC4)c(O)c(CN4CCCC4)c3)c2n1
inactive: EC50 [2] > 91.2 µM
active: IC50 [3] 5.61 µM | AC50 [4] 0.791 µM | EC50 [5] 0.587 µM | EC50 [6] 22 µM | AC50 (INS1) 3.38 µM | IC50 [7] 20.3 µM | IC50 [8] 40.5 µM | AC50 [9] < 0.351 µM | EC50 [10] > 3.38 µM | EC50 [11] 32.2 µM | IC50 [12] 10.5 µM
> 16 µM (not active): EC50 [1]

O=C(N/N=C/c1cccnc1)c1cc(O)c(O)c(O)c1
inactive: IC50 (Albumin) > 94 µM | IC50 [14] > 100 µM | IC50 [15] > 100 µM
active: AC50 [13] < 0.005 µM | EC50 [6] 4.24 µM | IC50 [16] 5.77 µM | EC50 [11] 24.8 µM

CN1[C@@H]2CC[C@H]1C[C@@H](OC1c3ccccc3CCc3ccccc31)C2 [DEPTROPINE]
inactive: AC50 (Cytochrome P450 1A2) | IC50 [17] > 20 µM | IC50 [18] 10 µM

COc1ccc(-c2cc(C(F)(F)F)nc(SCC(=O)N(C)Cc3cn(C)nc3C)n2)cc1OC
active: AC50 (CAAX prenyl protease 1) 12.7 µM | AC50 (CAAX prenyl protease 2) 23.3 µM
